pIC50: −log10 of the molar value. Where two headings read alike, the source gives them in different places.
How the values were obtained:
human Syk protein = human Syk protein (Homo sapiens (Human), UniProt P43405); experiment: Syk kinase inhibition test; format: biochemical; settings: Table 95; read-out: SYK inhibitory activity IC50
Method: Finally, phosphorylated peptides and non-phosphorylated peptides were separated therebetween using LabChip™ 3000 system (Caliper Life Sciences, Inc., excitation wavelength: 488 nm, detection wavelength: 530 nm). Their respective amounts were measured, and the rate of phosphorylation reaction was then determined from the ratio between the amounts. The concentration at which the compound can inhibit 50% phosphorylation reaction is defined as an IC50 value (μM).
Also, known 1,2,4-triazine-6-carboxamide derivatives A, B, and C (WO2000/075113 (A: compound No. 121 and B: compound No. 154) and WO2000/076980 (C: compound No. 39)) were synthesized as control compounds. Their IC50 values (μM) were calculated in the same way as above and then compared with that of the compound of the present invention.

[1] = test system: SU-DHL-6 cells (diffuse large-cell lymphoma cell line); experiment: Cell growth inhibition test; format: cell-based; settings: read-out: Cell growth inhibition IC50
Method: The compound of the present invention was serially diluted with dimethyl sulfoxide and then added to an RPMI1640 medium containing 10% FBS. Each resulting solution was added at a concentration of 100 μl/well to the preceding SU-DHL-6 cell culture plate (final concentration of the compound: 10, 3, 1, 0.3, 0.1, 0.03, 0.01, and 0.003 μM). The cells were cultured at 37° C. for 3 days in an incubator containing 5% CO2. The cells thus cultured were left at room temperature for 30 minutes and then centrifuged at 1500 rpm for 3 minutes using a centrifuge (Hitachi Koki Co., Ltd., Himac CF7D2). A 100 μl aliquot of the supernatant was removed from each well to allow 100 μl of the cell culture solution to remain therein. This 100 μl of the remaining cell culture solution was supplemented with an equal amount of CellTiter-Glo Luminescent Cell Viability Assay (Promega KK, Cat#: G7573), and the mixture was then shaken for 1 minute using a plate mixer. The reaction solution was left in the dark for 10 minutes. Then, luminescence intensity derived from live cells of each well was measured using a microplate reader (PerkinElmer Inc., ARVOsx). […] Likewise, the IC50 values (μM) of the control compounds were also calculated and then compared with that of the compound of the present invention. Rate of cell growth inhibition(%)=(C−T)/C×100 T: luminescence intensity (count per second) of a well supplemented with the test compound C: luminescence intensity (count per second) of a well non-supplemented with the test compound

[2] = SU-DHL-6 cells, 3 days culture, Table 96
[3] = Homo sapiens, 72 h, SU-DHL-6 cells, 3 days culture, Table 96

pIC50 (human Syk protein)	SMILES	other results
9.40	NC(=O)c1nnc(N[C@@H]2CCCC[C@@H]2N)nc1Nc1ccc2ncccc2c1 [Example 1, 3-((1R,2S)-2-aminocyclohexylamino)-5-(quinolin-6-ylamino)-1,2,4-triazine-6-carboxamide]	
9.38	CCn1nc(C)c2ccc(Nc3nc(N[C@@H]4CCCC[C@@H]4N)nnc3C(N)=O)cc21 [Example 50, 3-((1R,2S)-2-aminocyclohexylamino)-5-(1-ethyl-3-methyl-1H-indazol-6-ylamino)-1,2,4-triazine-6-carboxamide]	
9.30	CCn1nc(C)c2cc(Nc3nc(N[C@@H]4CCCC[C@@H]4N)nnc3C(N)=O)ccc21 [Example 56, 3-((1R,2S)-2-aminocyclohexylamino)-5-(1-ethyl-3-methyl-1H-indazol-5-ylamino)-1,2,4-triazine-6-carboxamide]	
9.43	Cc1cc(Nc2nc(N[C@@H]3CCCC[C@@H]3N)nnc2C(N)=O)cc2cn(C(F)F)nc12 [Example 62, 3-(((1R,2S)-2-aminocyclohexyl)amino)-5-((2-(difluoromethyl)-7-methyl-2H-indazol-5-yl)amino)-1,2,4-triazine-6-carboxamide]	
9.21	CC(C)(C)n1cc2cc(Nc3nc(N[C@@H]4CCCC[C@@H]4N)nnc3C(N)=O)cc(-n3cccn3)c2n1 [Example 66, 3-(((1R,2S)-2-aminocyclohexyl)amino)-5-((2-(tert-butyl)-7-(1H-pyrazol-1-yl)-2H-indazol-5-yl)amino)-1,2,4-triazine-6-carboxamide]	
9.26	NC(=O)c1nnc(N[C@@H]2CCCC[C@@H]2N)nc1Nc1cc(-c2ncccn2)cs1 [Example 76, 3-(((1R,2S)-2-aminocyclohexyl)amino)-5-((4-(pyrimidin-2-yl)thiophen-2-yl)amino)-1,2,4-triazine-6-carboxamide]	
9.20	Cc1cc(Nc2nc(N[C@@H]3CCOC[C@@H]3N)nnc2C(N)=O)cc2cn(C(C)(C)CO)nc12 [Example 99, 3-(((3R,4R)-3-aminotetrahydro-2H-pyran-4-yl)amino)-5-((2-(1-hydroxy-2-methylpropan-2-yl)-7-methyl-2H-indazol-5-yl)amino)-1,2,4-triazine-6-carboxamide]	
9.39	CC(C)(C)n1cc2cc(Nc3nc(N[C@@H]4CCOC[C@@H]4N)nnc3C(N)=O)cc(Cl)c2n1 [Example 100, 3-(((3R,4R)-3-aminotetrahydro-2H-pyran-4-yl)amino)-5-((2-(tert-butyl)-7-chloro-2H-indazol-5-yl)amino)-1,2,4-triazine-6-carboxamide]	
9.32	CCOC[C@H](N)[C@@H](C)Nc1nnc(C(N)=O)c(Nc2cc(C)c3ncccc3c2)n1 [Example 282]	
9.47	COC[C@H](N)[C@@H](C)Nc1nnc(C(N)=O)c(Nc2cc(C)c3c(cnn3C(C)C)c2)n1 [Example 284]	
9.23	CCn1ncc2c(C)cc(Nc3nc(N[C@@H]4CCOC[C@@H]4N)nnc3C(N)=O)cc21 [Example 310]	
9.26	CCn1ncc2cc(Nc3nc(N[C@H](C)[C@@H](N)COC)nnc3C(N)=O)cc(C)c21 [Example 311, 3-(((2R,3R)-3-amino-4-methoxybutan-2-yl)amino)-5-((1-ethyl-7-methyl-1H-indazol-5-yl)amino)-1,2,4-triazine-6-carboxamide]	
9.51	CCn1cc2ccc(Nc3nc(N[C@@H]4CCCCC[C@@H]4N)nnc3C(N)=O)cc2n1 [Example 316, 3-(((1R,2S)-2-aminocycloheptyl)amino)-5-((2-ethyl-2H-indazol-6-yl)amino)-1,2,4-triazine-6-carboxamide]	

The next lines start with the compound.

SMILES	pIC50 (human Syk protein)	other results
NC(=O)c1ccc(NC2CCCCC2N)cc1Nc1ccccc1Br (stereo not drawn) [A, reference compound]	7.48	pIC50 [1, 2]: 5.70
NC(=O)c1ccc(NC2CCCCC2N)cc1Nc1cccc2c1OCO2 (stereo not drawn) [B, reference compound]	8.17	pIC50 [1, 2]: 5.72
Cc1cccc(Nc2cc(NCCN(C)C)ccc2C(N)=O)c1 [C, reference compound]	6.21	pIC50 [1, 2]: < 5.00
NC(=O)c1nnc(N[C@@H]2CCCC[C@@H]2N)nc1Nc1cccc2sccc12 [Example 2, 3-((1R,2S)-2-aminocyclohexylamino)-5-(benzo[b]thiophen-4-ylamino)-1,2,4-triazine-6-carboxamide]	9.34	
Cn1ccc2c(Nc3nc(N[C@@H]4CCCC[C@@H]4N)nnc3C(N)=O)cccc21 [Example 3, 3-((1R,2S)-2-aminocyclohexylamino)-5-(1-methyl-H-indol-4-ylamino)-1,2,4-triazine-6-carboxamide]	9.44	pIC50 [1, 3]: 7.04
[2H]C([2H])([2H])C([2H])([2H])n1ncc2cc(Nc3nc(N[C@@H]4CCCC[C@@H]4N)nnc3C(N)=O)ccc21 [Example 5, 3-((1R,2S)-2-aminocyclohexylamino)-5-(1-(ethyl-d5)-1H-indazol-5-ylamino)-1,2,4-triazine-6-carboxamide]	9.28	
[2H]C([2H])([2H])C([2H])([2H])n1ncc2cc(Nc3nc(N[C@H]4CCCNC4)nnc3C(N)=O)ccc21 [Example 7, (S)-5-(1-(ethyl-d5)-1H-indazol-5-ylamino)-3-(piperidin-3-ylamino)-1,2,4-triazine-6-carboxamide diformate]	9.04	pIC50 ([1]; Homo sapiens, SU-DHL-6, 72 h): 6.76
NC(=O)c1nnc(N[C@@H]2CCCC[C@@H]2N)nc1Nc1ccc2nn(C3CCC3)cc2c1 [Example 11, 3-((1R,2S)-2-aminocyclohexylamino)-5-(2-cyclobutyl-2H-indazol-5-ylamino)-1,2,4-triazine-6-carboxamide]	9.33	
Cn1cc(-c2cc(Nc3nc(N[C@@H]4CCCC[C@@H]4N)nnc3C(N)=O)c3cnn(C)c3c2)cn1 [Example 13, 3-((1R,2S)-2-aminocyclohexylamino)-5-(1-methyl-6-(1-methyl-1H-pyrazol-4-yl)-1H-indazol-4-ylamino)-1,2,4-triazine-6-carboxamide]	9.31	
NC(=O)c1nnc(N[C@@H]2CCCC[C@@H]2N)nc1Nc1cncc(C2CC2)c1 [Example 16, 3-((1R,2S)-2-aminocyclohexylamino)-5-(5-cyclopropylpyridin-3-ylamino)-1,2,4-triazine-6-carboxamide]	9.03	
CCn1ccc2c(Nc3nc(N[C@@H]4CCCC[C@@H]4N)nnc3C(N)=O)cccc21 [Example 17, 3-((1R,2S)-2-aminocyclohexylamino)-5-(1-ethyl-1H-indol-4-ylamino)-1,2,4-triazine-6-carboxamide]		pIC50 [1, 3]: 7.12
Cn1ccc(-n2ccc3c(Nc4nc(N[C@@H]5CCCC[C@@H]5N)nnc4C(N)=O)cccc32)n1 [Example 25, 3-((1R,2S)-2-aminocyclohexylamino)-5-(1-(1-methyl-1H-pyrazol-3-yl)-1H-indol-4-ylamino)-1,2,4-triazine-6-carboxamide]	9.44	pIC50 [1, 3]: 7.00
NC(=O)c1nnc(N[C@@H]2CCCC[C@@H]2N)nc1Nc1cccc2c1ccn2C(F)F [Example 26, 3-((1R,2S)-2-aminocyclohexylamino)-5-(1-(difluoromethyl)-1H-indol-4-ylamino)-1,2,4-triazine-6-carboxamide]	9.66	pIC50 [1, 3]: 7.39
Cc1cc2c(Nc3nc(N[C@@H]4CCCC[C@@H]4N)nnc3C(N)=O)cccc2n1C1CC1 [Example 33, 3-((1R,2S)-2-aminocyclohexylamino)-5-(1-cyclopropyl-2-methyl-H-indol-4-ylamino)-1,2,4-triazine-6-carboxamide]	9.15	
COc1ccc2sc(Nc3nc(N[C@@H]4CCCC[C@@H]4N)nnc3C(N)=O)c(C)c2c1 [Example 48, 3-((1R,2S)-2-aminocyclohexylamino)-5-(5-methoxy-3-methylbenzo[b]thiophen-2-ylamino)-1,2,4-triazine-6-carboxamide]	9.57	
Cn1ccc(-n2ccc3c(Nc4nc(NCC5(N)CCC5)nnc4C(N)=O)cccc32)n1 [Example 106, 3-(((1-aminocyclobutyl)methyl)amino)-5-((1-(1-methyl-1H-pyrazol-3-yl)-1H-indol-4-yl)amino)-1,2,4-triazine-6-carboxamide]	9.07	
CCn1ncc2c(Nc3nc(N[C@@H]4CCCC[C@@H]4N)nnc3C(N)=O)cccc21 [Example 107, 3-(((1R,2S)-2-aminocyclohexyl)amino)-5-((1-ethyl-1H-indazol-4-yl)amino)-1,2,4-triazine-6-carboxamide]	9.21	
N#Cc1cc(Nc2nc(N[C@@H]3CCCC[C@@H]3N)nnc2C(N)=O)c2ccsc2c1 [Example 208]	9.40	
NC(=O)c1nnc(N[C@@H]2CCCC[C@@H]2N)nc1Nc1cccc2nn(C(F)F)cc12 [Example 209]	9.48	

— US9145414B2, “1,2,4-triazine-6-carboxamide derivative” (TAIHO PHARMACEUTICAL CO., LTD., priority 2011, dated 2015)
